Experimental data: patent publication US8288439B2, “Methods and compositions for the inhibition of HIV-1 replication” (The United States of America, as represented by the …, priority 2003, dated 2012)
“Also recorded” adds a separate entry of the source. Read-outs that look alike come from different tables or passages of the source.

Experiments:
[1] = system: macrophages; experiment: Macrophage cell viability / cell number, morphology and ultrastructural analysis; conditions: for cell viability (cell number, morphology, ultrastructural analysis): infected or uninfected macrophage cultures treated with oligonucleotides
Protocol: To determine whether the increased p21 influenced viral life cycle, the cells are treated with two distinct p21 anti-sense oligonucleotides (SEQ ID NO. 7 and SEQ ID NO. 9).

[2] = system: CD4 and CCR5; experiment: Macrophage CD4 and CCR5 expression; type: cell-based, human
Protocol: Macrophages were also treated with p21 siRNA duplexes (5 nM) five days prior to HIV infection and the effect on HIV-growth was determined (% of positive HIV control, no siRNA treatment) (representative experiment, n=3) (FIG. 6B). The percent of HIV-1 infection was determined comparing the p24 levels in untreated vs oligo or siRNA treated macrophages. Cells treated with p21 and negative control siRNA (5 days) were also analyzed by flow cytometry for CD4 and CCR5 cell surface expression (FIG. 6C). Nested PCR was employed in order to detect pro-viral DNA on days 1 and 3 after HIV-1BaL infection in macrophages treated with p21 or control siRNA or negative control si RNA. Control represents uninfected cells (FIG. 6D).

[3] = system: HIV-1; conditions: for viral replication / HIV-1 growth as determined by p24 levels: oligonucleotide 50 nM, after HIV-1 infection and at refeeding, day 12, vs HIV control without oligo
Protocol: Monocytes are plated in 6 well plates (Corning Costar Corporation, Cambridge, Mass.), at 6×10^6 cells/well or in Lab-Tek chamber slides (Naperville, Ill.) at 1.5×10^6/chamber in Dulbecco's modified Eagle's medium (DMEM) with 2 mM L-glutamine and 10 μg/ml gentamicin (BioWhittaker) or in other suitable vessels. After adherence (4-6 hr at 37° C. and 5% CO2), 10% human AB-serum (Sigma, St. Louis, Mo.) is added to the culture medium. Cells are cultured 5-10 days to allow differentiation into macrophages before being infected with HIV-1BaL TCID50=1000-5000 (Advanced Biotechnologies Inc., Columbia, Md.) or other M tropic (R5) virus for 90 minutes at 37° C. The levels of endotoxin are below the limit of detection in virus preparations. Unbound virus is removed by washing the cells with media and refeeding with complete DMEM containing 10% human serum. Control populations of adherent macrophages are mock-infected and cultured in parallel. Every 3 to 4 days, half the medium is removed for virus assay and replaced with fresh complete medium for two weeks. Supernatant p24 antigen is assayed using the p24 core profile enzyme-linked immunosorbent assay (ELISA) kit (Perkin-Elmer Life Sciences, Wilmington, Del.). […] Additionally, macrophages are treated with p21 anti-sense phosphorothioate oligonucleotides:

[4] = system: p21 (CDKN1A); experiment: p21 (CDKN1A) gene expression in HIV-1 infected macrophages (ribonuclease protection assay); type: cell-based, human; conditions: for human p21 expression: murine-derived antisense sequences tested in human macrophages
From the text: Total cellular RNA is extracted from adherent control or infected monocytes with the RNeasy minikit (Qiagen, Valencia, Calif.) and analyzed by northern blot (Wahl, S. M. et al. (1998) “MYCOBACTERIUM AVIUM COMPLEX AUGMENTS MACROPHAGE HIV-1 PRODUCTION AND INCREASES CCR5 EXPRESSION. Proc Natl Acad Sci USA 95:12574-12579) using an HIV-full length probe (NIH AIDS Research and Reference Reagent Program) and GAPDH (glyceraldehyde-3-phosphate dehydrogenase) (Gibco BRL, Gaithersburg, Md.). For the RPA 3 μg of RNA is evaluated using the hStress tRiboquant Multi-Probe RPA system (BD Pharmingen, San Diego, Calif.) and densities are normalized to the GAPDH gene using ImageQuant (Molecular Dynamics, Sunnyvale, Calif.)

[5] = system: p21 (CDKN1A); experiment: p21 protein levels in macrophages; type: cell-based, human; conditions: concomitant with reducing HIV infection
Protocol: Uninfected and HIV-1 infected macrophages that have been cultured for twelve days are washed twice with PBS, fixed with 2% paraformaldehyde in PBS, washed and incubated in 100 mM glycine in PBS for 20 min, followed by 0.5% Triton-X-100 for 10 min and rinsed with PBS. Cells are then labeled with rabbit anti-p21 antibody at 5 μg/ml (Santa Cruz Biotechnology, Santa Cruz, Calif.) in PBS containing 5% donkey serum (Jackson ImmunoResearch Laboratories, Inc., West Grove, Pa.) for 1 hr, washed extensively, then incubated with Texas-Red conjugated secondary antibody at 3 μg/ml at room temperature (Molecular Probes, Eugene, Oreg.). Non-specific background is determined using an irrelevant rabbit isotype control antibody and secondary antibody alone at the same concentrations above. Images are captured using a Leica TCS-4D confocal microscope system with a Kr—Ar laser on a DMR upright microscope using a 40×, 1.0 numerical aperture objective. Fluorescence intensity analysis is performed using confocal microscopy and Metamorph analysis (Universal Imaging, Downington, Pa.). […]

[6] = system: HIV-1; experiment: Transmission electron microscopy (ultrastructural analysis) of HIV-1 infected macrophages; type: cell-based; conditions: day 12; ≧200 cells/treatment condition
From the text: Gluteraldehyde-fixed uninfected and infected cells are postfixed in OsO4, dehydrated through graded ethanol and propylene oxide, embedded in Spurr's epoxy, and thick- and thin-sectioned. Thin sections are placed on copper grids, stained with uranyl acetate and lead citrate, and viewed in a Zeiss EM10 microscope (LEO Electron Microscope; Oberkochen, Germany).

[7] = system: p21; experiment: Induction of p21 gene and protein expression in macrophages treated with Vpr; type: cell-based, human; conditions: Vpr 6 μg/ml for 3 hr
Protocol: Macrophages were treated with Vpr (6 μg/ml) for 3 hr and found to show increased gene transcription and protein expression for p21 when treated with Vpr (FIG. 7A and FIG. 7B).

Q: With “5′-ACATCACCAGGATTGGACAT-3′ (all phosphorothioate, sugars by position and methylation of C not given here; listed as Mus musculus) [SEQ ID NO. 9]” as the compound, how does the “cell viability (cell number, morphology, ultrastructural analysis)” value [1] read?
A: no negative effect

Q: And the “effect on macrophage CD4 and CCR5” value [2]?
A: no direct effect

Q: And the “viral replication / HIV-1 growth as determined by p24 levels” value [3]?
A: reduce viral replication; also recorded: inhibit HIV-1 growth

Q: And the “human p21 expression” value [4]?
A: effective in inhibiting

Q: What does the source list for “5′-TGGATCCGACATGTCAGA-3′ [SEQ ID NO. 14]”?
A: viral replication / HIV-1 growth as determined by p24 levels [3]: not; viral replication / HIV-1 growth as determined by p24 levels ([3]; listed as SEQ ID NO. 13): did not suppress

Q: “5′-TGTCAGGCTGGTCTGCCTCC-3′ (all phosphorothioate, sugars by position and methylation of C not given here; listed as Mus musculus) [SEQ ID NO. 7]” was tested. Which “cell viability (cell number, morphology, ultrastructural analysis)” value [1] did it give?
A: no negative effect

Q: What about the “effect on macrophage CD4 and CCR5” value [2] of the same compound?
A: no direct effect

Q: And the “viral replication / HIV-1 growth as determined by p24 levels” value [3]?
A: reduce viral replication; also recorded: inhibit HIV-1 growth

Q: What about the “human p21 expression” value [4] of the same compound?
A: effective in inhibiting

Q: For `CC1(C)CC[C@]2(C(=O)O)CC[C@]3(C)[C@H](C(=O)C=C4[C@@]5(C)C=C(C#N)C(=O)C(C)(C)[C@@H]5CC[C@]43C)[C@@H]2C1` [CDDO], which p21 protein levels [5] is on record?
A: variably decrease

Q: What about the “cell viability or cell number” value ([1]; HIV-1 infected macrophages treated with CDDO or di-CDDO) of the same compound?
A: Without reducing cell viability or cell number

Q: And the “release of the viral protein p24 Ag” value ([3]; added prior to, or at the time of, infection of macrophages with HIV-1, CDDO 0.1 μM)?
A: dose dependent suppression

Q: What about the “levels of detectable virus” value ([3]; macrophages infected with HIV-1) of the same compound?
A: dramatically reduced

Q: And the “viral replication as quantitated by p24 levels” value ([3]; macrophages pre-treated 45 min, then infected with HIV-1BaL, compared with DMSO control and untreated cells, day 10, n=3, P=0.01)?
A: reduced viral replication

Q: And the “p21 transcription by ribonuclease protection assay” value ([4]; HIV-1 infected macrophages, day 12 post-infection, mean, n=2)?
A: reduced p21 transcription

Q: And the “detectable virions (TEM)” value [6]?
A: absence or near absence of detectable virions

Q: And the “numbers of infected cells (ultrastructural analysis, TEM)” value [6]?
A: dramatically reduced numbers of infected cells

Q: How did the p21 gene transcription [7] turn out when “Vpr: HIV-1 Vpr gene product, added to macrophages at 6 μg/ml” was run?
A: increased

Q: What about the p21 protein expression [7] of the same compound?
A: increased
